The experiment deals with RPE65 (bovine RPE microsomes as the enzyme source) (Bos taurus, UniProt Q28175). In words: in vitro retinoid isomerase activity assay. The experiment is classed as biochemical.

The record followed here is article PMC4433804 (Nature chemical biology, 2015).

Sequence of UniProt Q28175 (Q28175 whole entry): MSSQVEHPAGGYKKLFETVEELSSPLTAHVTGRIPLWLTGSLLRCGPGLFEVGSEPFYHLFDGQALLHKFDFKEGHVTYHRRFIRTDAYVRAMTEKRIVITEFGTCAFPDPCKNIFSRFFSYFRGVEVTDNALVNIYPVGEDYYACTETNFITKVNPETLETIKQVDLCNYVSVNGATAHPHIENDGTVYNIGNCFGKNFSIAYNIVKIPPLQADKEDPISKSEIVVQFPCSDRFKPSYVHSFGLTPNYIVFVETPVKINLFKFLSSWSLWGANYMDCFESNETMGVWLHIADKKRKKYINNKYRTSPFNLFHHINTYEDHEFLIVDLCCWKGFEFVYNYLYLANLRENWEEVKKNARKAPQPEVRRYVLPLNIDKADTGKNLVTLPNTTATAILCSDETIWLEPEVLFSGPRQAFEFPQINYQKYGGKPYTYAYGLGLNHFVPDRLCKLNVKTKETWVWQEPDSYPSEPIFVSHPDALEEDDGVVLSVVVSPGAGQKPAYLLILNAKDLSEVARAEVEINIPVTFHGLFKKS

As usually defined, the IC50 is the concentration that inhibits the measured activity by half. Read a high IC50 as a need for much substance. As for `CC1=C(COc2cccc([C@H](O)CCN)c2)C(C)(C)CCC1` [MB-001, (R)-3-amino-1-(3-((2,6,6-trimethylcyclohex-1-en-1-yl)methoxy)phenyl)propan-1-ol], half-maximal inhibition (IC50) was put at 396 ± 58 nM.
